From ChEMBL document CHEMBL4376820, “Homodimeric Tobramycin Adjuvant Repurposes Novobiocin as an Effective Antibacterial Agent against Gram-Negative Bacteria” (J Med Chem, 2019)
The source made the active and inactive calls. No cut-off for these calls is given here.

Assays:
[1] = system: Acinetobacter baumannii; assay: Antibacterial activity against wild type Acinetobacter baumannii ATCC 17978 by checkerboard assay; assay type: functional
[2] = system: Acinetobacter baumannii; assay: Antibacterial activity against novobiocin-resistant Acinetobacter baumannii ATCC 17978 mutant generated from seven serial passages by checkerboard assay; assay type: functional
[3] = system: Acinetobacter baumannii; assay: Antibacterial activity against colistin-resistant Acinetobacter baumannii ATCC 17978 mutant generated from seven serial passages by checkerboard assay; assay type: functional
[4] = system: Acinetobacter baumannii; assay: Antibacterial activity against novobiocin and test compound-resistant Acinetobacter baumannii ATCC 17978 mutant generated from seven serial passages in presence of novobiocin by checkerboard assay; assay type: functional
[5] = system: Erythrocyte; assay: Hemolytic activity against porcine erythrocytes assessed as hemoglobin release at 1024 ug/ml incubated for 1 hr by microplate reader analysis; assay type: ADME, cell-based, Sus scrofa; details: pig
[6] = system: Pseudomonas aeruginosa; assay: Synergistic antibacterial activity against wild type Pseudomonas aeruginosa PAO1 assessed as potentiation of doxycycline-induced antibacterial effect incubated for 18 hrs by checkerboard assay; assay type: functional, organism-based
[7] = system: Pseudomonas aeruginosa; assay: Synergistic antibacterial activity against wild type Pseudomonas aeruginosa PAO1 assessed as potentiation of clindamycin-induced antibacterial effect incubated for 18 hrs by checkerboard assay relative to clindamycin alone; assay type: functional
[8] = system: Pseudomonas aeruginosa; assay: Synergistic antibacterial activity against wild type Pseudomonas aeruginosa PAO1 assessed as potentiation of ciprofloxacin-induced antibacterial effect incubated for 18 hrs by checkerboard assay; assay type: functional, organism-based
[9] = system: Pseudomonas aeruginosa; assay: Synergistic antibacterial activity against wild type Pseudomonas aeruginosa PAO1 assessed as potentiation of moxifloxacin-induced antibacterial effect incubated for 18 hrs by checkerboard assay relative to moxifloxacin alone; assay type: functional
[10] = system: Pseudomonas aeruginosa; assay: Synergistic antibacterial activity against wild type Pseudomonas aeruginosa PAO1 assessed as potentiation of piperacillin-induced antibacterial effect incubated for 18 hrs by checkerboard assay relative to piperacillin alone; assay type: functional
[11] = system: Pseudomonas aeruginosa; assay: Synergistic antibacterial activity against wild type Pseudomonas aeruginosa PAO1 assessed as potentiation of piperacillin-induced antibacterial effect incubated for 18 hrs by checkerboard assay; assay type: functional, organism-based
[12] = system: Pseudomonas aeruginosa; assay: Synergistic antibacterial activity against wild type Pseudomonas aeruginosa PAO1 assessed as potentiation of ceftazidime-induced antibacterial effect incubated for 18 hrs by checkerboard assay relative to ceftazidime alone; assay type: functional
[13] = system: Pseudomonas aeruginosa; assay: Synergistic antibacterial activity against wild type Pseudomonas aeruginosa PAO1 assessed as potentiation of chloramphenicol-induced antibacterial effect incubated for 18 hrs by checkerboard assay; assay type: functional, organism-based
[14] = system: Pseudomonas aeruginosa; assay: Antibacterial activity against wild type Pseudomonas aeruginosa PAO1 assessed as fractional inhibitory concentration index incubated for 18 hrs in presence of colistin by checkerboard assay; assay type: functional
[15] = system: Pseudomonas aeruginosa; assay: Synergistic antibacterial activity against wild type Pseudomonas aeruginosa PAO1 assessed as potentiation of fosfomycin-induced antibacterial effect incubated for 18 hrs by checkerboard assay relative to fosfomycin alone; assay type: functional
[16] = system: Pseudomonas aeruginosa; assay: Synergistic antibacterial activity against wild type Pseudomonas aeruginosa PAO1 assessed as potentiation of vancomycin-induced antibacterial effect at <=7.1 uM incubated for 18 hrs by checkerboard assay; assay type: functional, organism-based
[17] = system: Pseudomonas aeruginosa; assay: Synergistic antibacterial activity against wild type Pseudomonas aeruginosa PAO1 assessed as potentiation of novobiocin-induced antibacterial effect incubated for 18 hrs by checkerboard assay; assay type: functional, organism-based
[18] = system: Pseudomonas aeruginosa; assay: Synergistic antibacterial activity against wild type Pseudomonas aeruginosa PAO1 assessed as potentiation of levofloxacin-induced antibacterial effect incubated for 18 hrs by checkerboard assay; assay type: functional, organism-based
[19] = system: Pseudomonas aeruginosa; assay: Synergistic antibacterial activity against wild type Pseudomonas aeruginosa PAO1 assessed as potentiation of novobiocin-induced antibacterial effect incubated for 18 hrs by checkerboard assay relative to novobiocin alone; assay type: functional
[20] = system: Pseudomonas aeruginosa; assay: Synergistic antibacterial activity against wild type Pseudomonas aeruginosa PAO1 assessed as potentiation of meropenem-induced antibacterial effect incubated for 18 hrs by checkerboard assay relative to meropenem alone; assay type: functional
[21] = system: Pseudomonas aeruginosa; assay: Synergistic antibacterial activity against wild type Pseudomonas aeruginosa PAO1 assessed as potentiation of tobramycin-induced antibacterial effect at <= 7.1 uM incubated for 18 hrs by checkerboard assay; assay type: functional, organism-based
[22] = system: Pseudomonas aeruginosa; assay: Synergistic antibacterial activity against wild type Pseudomonas aeruginosa PAO1 assessed as potentiation of cefotaxime-induced antibacterial effect incubated for 18 hrs by checkerboard assay; assay type: functional, organism-based
[23] = system: Pseudomonas aeruginosa; assay: Synergistic antibacterial activity against wild type Pseudomonas aeruginosa PAO1 assessed as potentiation of moxifloxacin-induced antibacterial effect incubated for 18 hrs by checkerboard assay; assay type: functional, organism-based
[24] = system: Pseudomonas aeruginosa; assay: Synergistic antibacterial activity against wild type Pseudomonas aeruginosa PAO1 assessed as potentiation of minocycline-induced antibacterial effect incubated for 18 hrs by checkerboard assay; assay type: functional, organism-based
[25] = system: Pseudomonas aeruginosa; assay: Synergistic antibacterial activity against wild type Pseudomonas aeruginosa PAO1 assessed as potentiation of fosfomycin-induced antibacterial effect incubated for 18 hrs by checkerboard assay; assay type: functional, organism-based
[26] = system: HEK293; assay: Cytotoxicity against human HEK293 cells at 50 uM incubated for 48 hrs by PrestoBlue dye based fluorescence assay; assay type: cell-based; details: hek293, 48 h
[27] = system: Pseudomonas aeruginosa; assay: Antibacterial activity against wild type Pseudomonas aeruginosa PAO1 assessed as fractional inhibitory concentration index incubated for 18 hrs in presence of tobramycin by checkerboard assay; assay type: functional
[28] = system: Pseudomonas aeruginosa; assay: Synergistic antibacterial activity against wild type Pseudomonas aeruginosa PAO1 assessed as potentiation of rifampicin-induced antibacterial effect incubated for 18 hrs by checkerboard assay; assay type: functional, organism-based
[29] = system: Pseudomonas aeruginosa; assay: Synergistic antibacterial activity against wild type Pseudomonas aeruginosa PAO1 assessed as potentiation of doxycycline-induced antibacterial effect incubated for 18 hrs by checkerboard assay relative to doxycycline alone; assay type: functional
[30] = system: HepG2; assay: Cytotoxicity against human HepG2 cells at 50 uM incubated for 48 hrs by PrestoBlue dye based fluorescence assay; assay type: cell-based; details: hepg2, 48 h
[31] = system: Pseudomonas aeruginosa; assay: Synergistic antibacterial activity against wild type Pseudomonas aeruginosa PAO1 assessed as potentiation of linezolid-induced antibacterial effect incubated for 18 hrs by checkerboard assay; assay type: functional, organism-based
[32] = Toxicity in Galleria mellonella larvae assessed as survivability at 200 mg/kg measured every 6 hrs for 72 hrs; assay type: organism-based; details: in vivo
[33] = system: Pseudomonas aeruginosa; assay: Synergistic antibacterial activity against wild type Pseudomonas aeruginosa PAO1 assessed as potentiation of aztreonam-induced antibacterial effect incubated for 18 hrs by checkerboard assay relative to aztreonam alone; assay type: functional
[34] = system: Pseudomonas aeruginosa; assay: Synergistic antibacterial activity against wild type Pseudomonas aeruginosa PAO1 assessed as potentiation of levofloxacin-induced antibacterial effect incubated for 18 hrs by checkerboard assay relative to levofloxacin alone; assay type: functional
[35] = system: Pseudomonas aeruginosa; assay: Synergistic antibacterial activity against wild type Pseudomonas aeruginosa PAO1 assessed as potentiation of colistin-induced antibacterial effect at <=7.1 uM incubated for 18 hrs by checkerboard assay; assay type: functional, organism-based
[36] = system: Pseudomonas aeruginosa; assay: Synergistic antibacterial activity against wild type Pseudomonas aeruginosa PAO1 assessed as potentiation of rifampicin-induced antibacterial effect incubated for 18 hrs by checkerboard assay relative to rifampicin alone; assay type: functional
[37] = system: Pseudomonas aeruginosa; assay: Synergistic antibacterial activity against wild type Pseudomonas aeruginosa PAO1 assessed as potentiation of chloramphenicol-induced antibacterial effect incubated for 18 hrs by checkerboard assay relative to chloramphenicol alone; assay type: functional
[38] = system: Pseudomonas aeruginosa; assay: Synergistic antibacterial activity against wild type Pseudomonas aeruginosa PAO1 assessed as potentiation of meropenem-induced antibacterial effect incubated for 18 hrs by checkerboard assay; assay type: functional, organism-based
[39] = system: Pseudomonas aeruginosa; assay: Synergistic antibacterial activity against wild type Pseudomonas aeruginosa PAO1 assessed as potentiation of linezolid-induced antibacterial effect incubated for 18 hrs by checkerboard assay relative to linezolid alone; assay type: functional
[40] = system: Pseudomonas aeruginosa; assay: Synergistic antibacterial activity against wild type Pseudomonas aeruginosa PAO1 assessed as potentiation of cefotaxime-induced antibacterial effect incubated for 18 hrs by checkerboard assay relative to cefotaxime alone; assay type: functional
[41] = system: Pseudomonas aeruginosa; assay: Synergistic antibacterial activity against wild type Pseudomonas aeruginosa PAO1 assessed as potentiation of ciprofloxacin-induced antibacterial effect incubated for 18 hrs by checkerboard assay relative to ciprofloxacin alone; assay type: functional
[42] = system: Pseudomonas aeruginosa; assay: Synergistic antibacterial activity against wild type Pseudomonas aeruginosa PAO1 assessed as potentiation of clindamycin-induced antibacterial effect incubated for 18 hrs by checkerboard assay; assay type: functional, organism-based
[43] = system: Pseudomonas aeruginosa; assay: Synergistic antibacterial activity against wild type Pseudomonas aeruginosa PAO1 assessed as potentiation of aztreonam-induced antibacterial effect incubated for 18 hrs by checkerboard assay; assay type: functional, organism-based
[44] = system: Pseudomonas aeruginosa; assay: Synergistic antibacterial activity against wild type Pseudomonas aeruginosa PAO1 assessed as potentiation of ceftazidime-induced antibacterial effect incubated for 18 hrs by checkerboard assay; assay type: functional, organism-based
[45] = system: Pseudomonas aeruginosa; assay: Synergistic antibacterial activity against wild type Pseudomonas aeruginosa PAO1 assessed as potentiation of minocycline-induced antibacterial effect incubated for 18 hrs by checkerboard assay relative to minocycline alone; assay type: functional
[46] = system: Pseudomonas aeruginosa; assay: Potentiation of novobiocin-induced antibacterial activity against wild type Pseudomonas aeruginosa PAO1 incubated for 18 hrs by CLSI protocol based assay; assay type: functional, organism-based

SMILES: O=C(O)c1cn(C2CC2)c2cc(N3CCNCC3)c(F)cc2c1=O [CIPROFLOXACIN]
- MIC [1]: 1 µg/mL

SMILES: CO[C@H]1/C=C/O[C@@]2(C)Oc3c(C)c(O)c4c(O)c(c(/C=N/N5CCN(C)CC5)c(O)c4c3C2=O)NC(=O)/C(C)=C\C=C\[C@H](C)[C@H](O)[C@@H](C)[C@@H](O)[C@@H](C)[C@H](OC(C)=O)[C@@H]1C [RIFAMPIN]
- MIC [2]: 2 µg/mL
- MIC [3]: < 0.031 µg/mL
- MIC [4]: 2 µg/mL
- MIC [1]: 2 µg/mL

SMILES: NC[C@H]1O[C@H](O[C@H]2[C@H](OCCCCCCCCn3cc(CCCCO[C@@H]4[C@@H](O[C@H]5O[C@H](CO)[C@@H](O)[C@H](N)[C@H]5O)[C@H](N)C[C@H](N)[C@H]4O[C@H]4O[C@H](CN)[C@@H](O)C[C@H]4N)nn3)[C@@H](O[C@H]3O[C@H](CO)[C@@H](O)[C@H](N)[C@H]3O)[C@H](N)C[C@@H]2N)[C@H](N)C[C@@H]1O.O=C(O)C(F)(F)F.O=C(O)C(F)(F)F.O=C(O)C(F)(F)F.O=C(O)C(F)(F)F.O=C(O)C(F)(F)F.O=C(O)C(F)(F)F.O=C(O)C(F)(F)F.O=C(O)C(F)(F)F.O=C(O)C(F)(F)F.O=C(O)C(F)(F)F
- Activity [5]: Non-Toxic
- Activity [6]: Dose-dependent effect
- fold change (FC) [7]: 4 - 128
- Activity [8]: Dose-dependent effect
- fold change (FC) [9]: 4 - 128
- fold change (FC) [10]: 4 - 128
- Activity [11]: Dose-dependent effect
- fold change (FC) [12]: 4 - 128
- Activity [13]: Dose-dependent effect
- fractional inhibitory concentration index (FICI) [14]: >4
- fold change (FC) [15]: 4 - 128
- Activity [16]: inactive
- Activity [17]: Dose-dependent effect
- Activity [18]: Dose-dependent effect
- fold change (FC) [19]: 4 - 128
- fold change (FC) [20]: 4 - 128
- Activity [21]: inactive
- Activity [22]: Dose-dependent effect
- Activity [23]: Dose-dependent effect
- Activity [24]: Dose-dependent effect
- Activity [25]: Dose-dependent effect
- Activity [26]: Non-Toxic
- fractional inhibitory concentration index (FICI) [27]: >4
- Activity [28]: Dose-dependent effect
- fold change (FC) [29]: 4 - 128
- Activity [30]: Non-Toxic
- Activity [31]: Dose-dependent effect
- Activity [32]: Non-Toxic
- fold change (FC) [33]: 4 - 128
- fold change (FC) [34]: 4 - 128
- Activity [35]: inactive
- fold change (FC) [36]: 4 - 128
- fold change (FC) [37]: 4 - 128
- Activity [38]: Dose-dependent effect
- fold change (FC) [39]: 4 - 128
- fold change (FC) [40]: 4 - 128
- fold change (FC) [41]: 4 - 128
- Activity [42]: Dose-dependent effect
- Activity [43]: Dose-dependent effect
- Activity [44]: Dose-dependent effect
- fold change (FC) [45]: 4 - 128

SMILES: C#CCCCCO[C@@H]1[C@@H](O[C@H]2O[C@H](CO)[C@@H](O)[C@H](N)[C@H]2O)[C@H](N)C[C@H](N)[C@H]1O[C@H]1O[C@H](CN)[C@@H](O)C[C@H]1N
- Activity [46]: inactive
